Assay results published in patent US20230399358A1, “IMMUNOGLOBULIN PURIFICATION PEPTIDES AND THEIR USE” (North Carolina State University, priority 2019, published 2023).

Tests used:
human polyclonal IgG [1] = assay: Isothermal titration calorimetry (ITC) of IgG:ligand binding in solution; conditions: 25° C, PBS pH 7.4, peptide in solution, independent binding model
Experimental: Measurements of IgG-binding affinity in solution by isothermal titration calorimetry (ITC): Experimental determination of the binding free energy of the IgG:WQRHGI (SEQ ID NO:1) complex was performed by ITC using a Nano ITC Low Volume calorimeter (TA Instruments, New Castle, DE). […] All solutions were filtered through a 0.22 p.m syringe filter prior to use. Ten injections were performed for each measurement. Background energy from peptide dilution was determined by performing 10 injections of 5 μL of a 2 mg/mL solution of WQRHGI (SEQ ID NO:1) in PBS pH 7.4. The titration data were analyzed using NanoAnalyze software (TA Instruments) and plotted using an independent fitting, which fits the resultant Wiseman plot with parameters corresponding to a non-competitive single-site binding phenomenon in order to calculate the binding affinity (K(D(ITC)), and the stoichiometry (N) of the interaction. A constant blank was also utilized in the fitting to account for the heat of dilution of the IgG substrate.
Characterization of binding affinity for IgG-binding peptide variants WQRHGI (SEQ ID NO:1) and MWRGWQ (SEQ ID NO:2) in non-competitive conditions: Candidate peptide ligands WQRHGI (SEQ ID NO:1) and MWRGWQ (SEQ ID NO:2) were selected for experimental evaluation of IgG binding in non-competitive conditions (pure IgG in solution). […]

human polyclonal IgG [2] = assay: Static binding isotherm on WorkBeads adsorbents, Langmuir fit; conditions: WorkBeads adsorbent, PBS pH 7.4, Langmuir fit
Source text: Measurements of static and dynamic binding capacity: […] NO:2)-Workbeads and […] NO:30)-Workbeads were characterized in terms of static and dynamic binding capacity respectively by batch and breakthrough binding studies. The peptides […] NO:3) and […] NO:4) were not selected for further studies due to their low selectivity and low yield, respectively. […] The resin was pelleted by centrifugation and the supernatant removed. […] The resulting fractions were combined and analyzed by BCA assay to quantify the unbound IgG and, accordingly, the amount of IgG adsorbed. The resulting data were fit to a Langmuir isotherm to determine the values of Qmax and KD(Solid). […] The amount of unbound IgG was determined by analyzing the supernatants via Micro BCA Protein Assay Kit. The amount of bound IgG per volume of resin (Q) was determined by mass balance and plotted against the corresponding equilibrium concentration of unbound IgG in solution (CIgG). The data were fit to a Langmuir isotherm model, thus providing a value of maximum binding capacity (Qmax) and dissociation constant (KD).

CHO HCPs = assay: CHO HCP-specific ELISA, log removal value of HCPs; set-up: species or system Chinese hamster
Experimental: Purification of IgG from CHO Cell culture fluids using MWRGWQC (SEQ ID NO:31)- and WQRHGIC (SEQ ID NO:30)—Workbeads: A volume of 0.1 mL of resin was packed in a PEEK microbore column, installed on a Waters 2695 unit, and equilibrated with PBS, pH 7.4. All chromatographic buffers were filtered through a compatible 0.2 μm filter prior to use. A volume of 100 μL of solution of human polyclonal IgG at 1 mg/mL in a CHO cell culture fluid at 0.205 mg/mL CHO HCPs was injected in the column at 0.02 mL/min (RT: 5 minutes). Following injection, the resin was washed with PBS at 0.2 mL/min and, subsequently, with 100 mM NaCl in PBS at 0.2 mL/min. Elution was then conducted with […] pH 4. An acidic cleaning step was conducted in 0.1 M glycine pH 2.5 to remove any proteins still bound. The absorbance of the effluent was monitored by UV/Vis spectrophotometry at 280 nm. Fractions were collected and adjusted to neutral pH. Total protein concentration was measured by BCA assay. All collected fractions were also analyzed via SDS PAGE under reducing conditions. The gel was stained by silver staining, and the overall IgG purity in the eluted fractions was determined by densitometric analysis using ImageJ software. Finally, the feed and eluted fractions were analyzed using a CHO-specific ELISA kit to determine the log removal value (LRV) of HCPs. […]

## WQRHGI
Human polyclonal IgG [1]
  Kd: 58.8 µM
Human polyclonal IgG [2]
  Qmax: 52.6 mg IgG/mL resin
Human polyclonal IgG [2]; read-out: KD(Solid)
  Kd: 3.2 µM
CHO HCPs
  HCP clearance: greater than 99%
CHO HCPs; IgG 1 mg/mL in CHO fluid with 0.205 mg/mL HCPs, elution pH 4
  HCP LRV: 2.7
